# Test results as given in patent US8952024B2, “Herbicidal pyrimidone derivatives” (E I du Pont de Nemours and Company, priority 2009, dated 2015).
# How the values were obtained:
# Assay type in all cases: in vivo
# [1] = tested on: Italian ryegrass (Lolium multiflorum); assay: Test B pre-/postemergence plant response; details: Postemergence
# Outline: (§1)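 Compound in solvent + surfactant applied pre-em (loam/sand) or post-em (plants 2–18 cm, peat medium); greenhouse hold 13–15 days; visual 0–100 control score.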
# [2] = tested on: bermudagrass (Cynodon dactylon); assay: Test B pre-/postemergence plant response; details: for Bermudagrass plant response rating (0 to 100 scale): 62 g ai/ha, postemergence, 0 is no effect, 100 is complete control; for Plant response rating, Bermudagrass: Postemergence
# Outline: as §1
# [3] = tested on: blackgrass (Alopecurus myosuroides); assay: Test B pre-/postemergence plant response; details: for Blackgrass plant response rating (0 to 100 scale): 62 g ai/ha, postemergence, 0 is no effect, 100 is complete control; for Plant response rating, Blackgrass: Postemergence
# Outline: as §1
# corn (Zea mays) = assay: Test B pre-/postemergence plant response; details: Postemergence
# Outline: as §1
# [4] = tested on: downy bromegrass (Bromus tectorum); assay: Test B pre-/postemergence plant response; details: for Bromegrass, Downy plant response rating (0 to 100 scale): 62 g ai/ha, postemergence, 0 is no effect, 100 is complete control; for Plant response rating, Bromegrass, Downy: Postemergence
# Outline: as §1
# [5] = tested on: giant foxtail (Setaria faberii); assay: Test B pre-/postemergence plant response; details: Postemergence
# Outline: as §1
# [6] = tested on: goosegrass (Eleusine indica); assay: Test B pre-/postemergence plant response; details: Postemergence
# Outline: as §1
# [7] = tested on: green foxtail (Setaria viridis); assay: Test B pre-/postemergence plant response; details: Postemergence
# Outline: as §1
# [8] = tested on: johnsongrass (Sorghum halepense); assay: Test B pre-/postemergence plant response; details: Postemergence
# Outline: as §1
# [9] = tested on: morningglory (Ipomoea coccinea); assay: Test B pre-/postemergence plant response; details: Postemergence
# Outline: as §1
# [10] = tested on: pigweed (Amaranthus retroflexus); assay: Test B pre-/postemergence plant response; details: Postemergence
# Outline: as §1
# [11] = tested on: ragweed (common ragweed, Ambrosia elatior); assay: Test B pre-/postemergence plant response; details: Postemergence
# Outline: as §1
# soybean (Glycine max) = assay: Test B pre-/postemergence plant response; details: Postemergence
# Outline: as §1
# [12] = tested on: velvetleaf (Abutilon theophrasti); assay: Test B pre-/postemergence plant response; details: Postemergence
# Outline: as §1
# [13] = tested on: wheat (Triticum aestivum); assay: Test B pre-/postemergence plant response; details: Postemergence
# Outline: as §1
# [14] = tested on: canarygrass (Phalaris minor); assay: Test B postemergence plant response; details: Postemergence
# Outline: (§2)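 Plants at the 1- to 4-leaf stage (2 to 18 cm tall), grown in pots of peat moss/vermiculite medium with wetting agent and starter nutrients, received postemergence applications of test chemicals. After 13 to 15 days in a greenhouse, injury was rated visually against untreated controls on a 0 (no effect) to 100 (complete control) scale.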
# [15] = tested on: chickweed (Stellaria media); assay: Test B postemergence plant response; details: Postemergence
# Outline: as §2
# [16] = tested on: winter barley (Hordeum vulgare); assay: Test B postemergence plant response; details: for Barley plant response rating (0 to 100 scale): 62 g ai/ha, postemergence, 0 is no effect, 100 is complete control; for Plant response rating, Barley: Postemergence
# Outline: as §2
# [17] = 31 g ai/ha, 0 to 100 scale (0 no effect, 100 complete control)
# [18] = 125 g ai/ha, scale 0 to 100 (0 no effect, 100 complete control)
# [19] = 250 g ai/ha, scale 0 to 100 (0 no effect, 100 complete control), 13 to 15 days
compound,measurement,setting,value
O=C1CCCC(O)=C1C(=O)c1cnc(C2CC2)n(C2CCCCC2)c1=O [Compound 160],"Plant response rating, Ryegrass, Italian",[1]; [17],0
same,"Plant response rating, Ryegrass, Italian",[1]; [18],35
same,"Plant response rating, Ryegrass, Italian",[1]; [19],35
same,Bermudagrass plant response rating (0 to 100 scale),[2]; 13 to 15 days,75
same,"Plant response rating, Bermudagrass",[2]; [17],65
same,"Plant response rating, Bermudagrass",[2]; [18],90
same,"Plant response rating, Bermudagrass",[2]; [19],95
same,Blackgrass plant response rating (0 to 100 scale),[3]; 13 to 15 days,10
same,"Plant response rating, Blackgrass",[3]; [17],5
same,"Plant response rating, Blackgrass",[3]; [18],20
same,"Plant response rating, Blackgrass",[3]; [19],25
same,"Plant response rating, Corn",corn (Zea mays); [17],15
same,"Plant response rating, Corn",corn (Zea mays); [18],50
same,"Plant response rating, Corn",corn (Zea mays); [19],60
same,"Bromegrass, Downy plant response rating (0 to 100 scale)",[4]; 13 to 15 days,5
same,"Plant response rating, Bromegrass, Downy",[4]; [17],0
same,"Plant response rating, Bromegrass, Downy",[4]; [18],50
same,"Plant response rating, Bromegrass, Downy",[4]; [19],55
same,"Plant response rating, Foxtail, Giant",[5]; [17],70
same,"Plant response rating, Foxtail, Giant",[5]; [18],75
same,"Plant response rating, Foxtail, Giant",[5]; [19],85
same,"Plant response rating, Goosegrass",[6]; [17],80
same,"Plant response rating, Goosegrass",[6]; [18],90
same,"Plant response rating, Goosegrass",[6]; [19],90
same,"Plant response rating, Foxtail, Green",[7]; [17],55
same,"Plant response rating, Foxtail, Green",[7]; [18],70
same,"Plant response rating, Foxtail, Green",[7]; [19],98
same,"Plant response rating, Johnsongrass",[8]; [17],45
same,"Plant response rating, Johnsongrass",[8]; [18],65
same,"Plant response rating, Johnsongrass",[8]; [19],75
same,"Plant response rating, Morningglory",[9]; [17],75
same,"Plant response rating, Morningglory",[9]; [18],100
same,"Plant response rating, Morningglory",[9]; [19],100
same,"Plant response rating, Pigweed",[10]; [17],90
same,"Plant response rating, Pigweed",[10]; [18],100
same,"Plant response rating, Pigweed",[10]; [19],100
same,"Plant response rating, Ragweed",[11]; [17],80
same,"Plant response rating, Ragweed",[11]; [18],98
same,"Plant response rating, Ragweed",[11]; [19],98
same,"Plant response rating, Soybean",soybean (Glycine max); [17],85
same,"Plant response rating, Soybean",soybean (Glycine max); [18],98
same,"Plant response rating, Soybean",soybean (Glycine max); [19],98
same,"Plant response rating, Velvetleaf",[12]; [17],90
same,"Plant response rating, Velvetleaf",[12]; [18],100
same,"Plant response rating, Velvetleaf",[12]; [19],100
same,"Plant response rating, Wheat",[13]; [17],10
same,"Plant response rating, Wheat",[13]; [18],40
same,"Plant response rating, Wheat",[13]; [19],45
same,"Plant response rating, Canarygrass",[14]; [17],5
same,"Plant response rating, Canarygrass",[14]; [18],20
same,"Plant response rating, Canarygrass",[14]; [19],35
same,"Plant response rating, Chickweed",[15]; [17],85
same,"Plant response rating, Chickweed",[15]; [18],95
same,"Plant response rating, Chickweed",[15]; [19],100
same,Barley plant response rating (0 to 100 scale),[16]; 13 to 15 days,30
same,"Plant response rating, Barley",[16]; [17],5
same,"Plant response rating, Barley",[16]; [18],35
same,"Plant response rating, Barley",[16]; [19],50
Cc1ccc(-n2c(-c3cc(F)cc(F)c3)ncc(C(=O)C3=C(O)CCCC3=O)c2=O)cc1 [Compound 162],"Plant response rating, Ryegrass, Italian",[1]; [17],40
same,"Plant response rating, Ryegrass, Italian",[1]; [18],80
same,"Plant response rating, Ryegrass, Italian",[1]; [19],90
same,Bermudagrass plant response rating (0 to 100 scale),[2]; 13 to 15 days,95
same,"Plant response rating, Bermudagrass",[2]; [17],85
same,"Plant response rating, Bermudagrass",[2]; [18],100
same,"Plant response rating, Bermudagrass",[2]; [19],100
same,Blackgrass plant response rating (0 to 100 scale),[3]; 13 to 15 days,40
same,"Plant response rating, Blackgrass",[3]; [17],30
same,"Plant response rating, Blackgrass",[3]; [18],55
same,"Plant response rating, Blackgrass",[3]; [19],65
same,"Plant response rating, Corn",corn (Zea mays); [17],50
same,"Plant response rating, Corn",corn (Zea mays); [18],80
same,"Plant response rating, Corn",corn (Zea mays); [19],85
same,"Bromegrass, Downy plant response rating (0 to 100 scale)",[4]; 13 to 15 days,30
same,"Plant response rating, Bromegrass, Downy",[4]; [17],20
same,"Plant response rating, Bromegrass, Downy",[4]; [18],45
same,"Plant response rating, Bromegrass, Downy",[4]; [19],50
same,"Plant response rating, Foxtail, Giant",[5]; [17],85
same,"Plant response rating, Foxtail, Giant",[5]; [18],98
same,"Plant response rating, Foxtail, Giant",[5]; [19],98
same,"Plant response rating, Goosegrass",[6]; [17],60
same,"Plant response rating, Goosegrass",[6]; [18],90
same,"Plant response rating, Goosegrass",[6]; [19],98
same,"Plant response rating, Foxtail, Green",[7]; [17],98
same,"Plant response rating, Foxtail, Green",[7]; [18],98
same,"Plant response rating, Foxtail, Green",[7]; [19],100
same,"Plant response rating, Johnsongrass",[8]; [17],98
same,"Plant response rating, Johnsongrass",[8]; [18],100
same,"Plant response rating, Johnsongrass",[8]; [19],100
same,"Plant response rating, Morningglory",[9]; [17],75
same,"Plant response rating, Morningglory",[9]; [18],90
same,"Plant response rating, Morningglory",[9]; [19],100
same,"Plant response rating, Pigweed",[10]; [17],100
same,"Plant response rating, Pigweed",[10]; [18],100
same,"Plant response rating, Pigweed",[10]; [19],100
same,"Plant response rating, Ragweed",[11]; [17],90
same,"Plant response rating, Ragweed",[11]; [18],100
same,"Plant response rating, Ragweed",[11]; [19],100
same,"Plant response rating, Soybean",soybean (Glycine max); [17],98
same,"Plant response rating, Soybean",soybean (Glycine max); [18],100
same,"Plant response rating, Soybean",soybean (Glycine max); [19],100
same,"Plant response rating, Velvetleaf",[12]; [17],80
same,"Plant response rating, Velvetleaf",[12]; [18],95
same,"Plant response rating, Velvetleaf",[12]; [19],100
same,"Plant response rating, Wheat",[13]; [17],10
same,"Plant response rating, Wheat",[13]; [18],35
same,"Plant response rating, Wheat",[13]; [19],40
same,"Plant response rating, Canarygrass",[14]; [17],40
same,"Plant response rating, Canarygrass",[14]; [18],90
same,"Plant response rating, Canarygrass",[14]; [19],90
same,"Plant response rating, Chickweed",[15]; [17],90
same,"Plant response rating, Chickweed",[15]; [18],100
same,"Plant response rating, Chickweed",[15]; [19],100
same,Barley plant response rating (0 to 100 scale),[16]; 13 to 15 days,35
same,"Plant response rating, Barley",[16]; [17],30
same,"Plant response rating, Barley",[16]; [18],50
same,"Plant response rating, Barley",[16]; [19],85
